Experimental data published in patent US12048700B2 (Merck Patent GmbH, priority 2017, dated 2024).
Read-outs that look alike come from different tables or passages of the source.

Key:
[1] = DVS; for removal of water on drying (in words): ten hours of nitrogen purge at room temperature
Protocol: DVS measurements are typically performed at 25° C. with an SPS11-100n “Sorptions Prüfsystem” from ProUmid (formerly “Projekt Messtechnik”), August-Nagel-Str. 23, 89079 Ulm (Germany).

[2] = 25° C./60% rh
[3] = 40° C./75% rh
[4] = Water content of the sample before DVS (TG-FTIR mass loss or Karl Fischer titration)
Protocol: Thermogravimetric measurements were carried out with a Netzsch Thermo-Microbalance TG 209 coupled to a Bruker FTIR Spectrometer Vector 22 (sample pans with a pinhole, N2 atmosphere, heating rate 10 K/min).
A sample of crystalline monosodium salt according to at least one of the previous examples is investigated by thermogravimetry coupled with infrared spectroscopy (TG-FTIR). Thermogravimetric measurements were done with a sample mass of about 6 mg. […] The same sample is now examined by dynamic vapor sorption analysis (DVS). About 20 mg of sample are placed put into an aluminum sample pan. Humidity change rates of 5% per hour were used. […] The sample was placed on an aluminum holder on top of a microbalance and allowed to equilibrate at 50% RH before starting the pre-defined humidity program in the following way: • (1) 2 hours at 50% relative humidity • (2) 50→0% relative humidity (5%/hour); 10 hours at 0% relative humidity • (3) 0→75% relative humidity (5%/hour); 5 hours at 75% relative humidity • (4) 75→0% relative humidity (5%/hour); 10 hours at 0% relative humidity • (5) 0→50% relative humidity (5%/hour); 2 hours at 50% relative humidity
A sample of crystalline calcium salt of MTHF is examined by Karl Fischer titration to evaluate the water content. […]

[5] = room temperature; purified/de-ionized water; vigorously agitated and briefly sonicated
Protocol: 2.535 ml of purified/de-ionized water (for instance water for chromatography) is added to the solid using an adjustable volumetric pipette. The mixture is vigorously agitated at room temperature and briefly sonicated.

[6] = room temperature; suspension stirred 30 minutes with excess solid

| Compound | hygroscopicity compared with the calcium salt (in words) ([1]; relative humidity 20% to 75%) | removal of water on drying (in words) ([1]; listed as crystalline monosodium salt, monosodium salt) | removal of water on drying (in words) ([1]; listed as crystalline sodium salt of 5-methyl-(6S)-tetrahydrofolic acid, monosodium salt) | 5-methyl-(6S)-tetrahydrofolic acid content ([2]; 0 months) | 5-methyl-(6S)-tetrahydrofolic acid content ([2]; 3 months) | 5-methyl-(6S)-tetrahydrofolic acid content ([2]; 6 months) | 5-methyl-(6S)-tetrahydrofolic acid content ([2]; 9 months) | 5-methyl-(6S)-tetrahydrofolic acid content ([2]; 12 months) | 5-methyl-(6S)-tetrahydrofolic acid content ([3]; 0 months) | 5-methyl-(6S)-tetrahydrofolic acid content ([3]; 3 months) | 5-methyl-(6S)-tetrahydrofolic acid content ([3]; 6 months) | 5-methyl-(6S)-tetrahydrofolic acid content ([3]; 9 months) | 5-methyl-(6S)-tetrahydrofolic acid content ([3]; 12 months) | mass loss at 200° C. (TG-FTIR), essentially the water content ([4]; after drying in air at room temperature, sample mass about 6 mg) | kinetic solubility in water [5] | removal of water on drying (in words) [1] | solubility in water [6] | water content (Karl Fischer titration) ([4]; sample before DVS) |
| --- | --- | --- | --- | --- | --- | --- | --- | --- | --- | --- | --- | --- | --- | --- | --- | --- | --- | --- |
| CN1c2c(nc(N)[nH]c2=O)NC[C@@H]1CNc1ccc(C(=O)N[C@@H](CCC(=O)[O-])C(=O)O)cc1.[Na+] [5-methyl-(6S)-tetrahydrofolic acid monosodium salt] | less hygroscopic | all the water of the sample is essentially removed | water can essentially be removed | 94.7 % w/w | 93.0 % w/w | 94.2 % w/w | 95.6 % w/w | 94.1 % w/w | 94.7 % w/w | 92.7 % w/w | (81.8)^1 % w/w | 94.8 % w/w | 92.9 % w/w | about 1.3% |  |  |  |  |
| CN1c2c([nH]c(N)nc2=O)NC[C@@H]1CNc1ccc(C(=O)N[C@@H](CCC(=O)[O-])C(=O)[O-])cc1.[Ca+2] [calcium salt of 5-methyl-(6S)-tetrahydrofolic acid] |  |  |  | 80.7 % w/w | 79.0 % w/w | 77.7 % w/w | 78.5 % w/w | 77.9 % w/w | 80.7 % w/w | 78.5 % w/w | 78.0 % w/w | 78.8 % w/w | 77.8 % w/w |  | smaller than 10 mg per 1 ml of water | less than half of the water can be removed | 7.1 mg/mL | 12.4% |
